Source: BindingDB's records for PubMed 33764065 (Niddk, 2021)

Tests used:
[1] = Binding affinity to bovine brain membrane BzR assessed as inhibition constant
[2] = Inhibition of human non pancreatic secretory phospholipase A2 incubated for 30 mins by plate reader analysis

Ki [1] | IC50 [2] | Structure (SMILES)
0.117 µM | – | O=C(NCc1ccccc1)C(=O)c1c[nH]c2ccc([N+](=O)[O-])cc12 [N-benzyl-2-(5-nitro-1H-indol-3-yl)-2-oxoacetamide]
– | 13.6 µM | COc1ccc2c(c1)c(CC(=O)O)c(C)n2Cc1ccccc1 [1-BENZYL-5-METHOXY-2-METHYL-1H-INDOL-3-YL)-ACETIC ACID]
